Assay [1] addresses T1, Mitogen-activated protein kinase 15 (Homo sapiens) (UniProt Q8TD08).
T1 sequence (whole entry): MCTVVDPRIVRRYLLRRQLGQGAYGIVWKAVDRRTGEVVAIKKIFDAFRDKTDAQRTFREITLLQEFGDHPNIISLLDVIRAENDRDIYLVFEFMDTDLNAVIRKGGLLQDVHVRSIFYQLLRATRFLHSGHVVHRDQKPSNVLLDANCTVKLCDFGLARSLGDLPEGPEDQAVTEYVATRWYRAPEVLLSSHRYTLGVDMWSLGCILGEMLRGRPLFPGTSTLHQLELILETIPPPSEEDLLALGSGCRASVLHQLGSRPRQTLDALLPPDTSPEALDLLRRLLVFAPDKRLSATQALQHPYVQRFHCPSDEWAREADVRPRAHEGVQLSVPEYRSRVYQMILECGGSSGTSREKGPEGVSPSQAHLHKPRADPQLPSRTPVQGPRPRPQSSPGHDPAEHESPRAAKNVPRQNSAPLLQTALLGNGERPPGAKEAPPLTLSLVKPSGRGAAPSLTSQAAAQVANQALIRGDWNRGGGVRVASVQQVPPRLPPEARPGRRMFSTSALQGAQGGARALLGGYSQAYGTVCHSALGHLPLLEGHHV
The note with it: dose 10.0 µM.

Assay [2] has as its target Serine/threonine-protein kinase pim-3 (Homo sapiens) (UniProt Q86V86). As to conditions: dose 10.0 µM.
Assay [3] addresses Homeodomain-interacting protein kinase 2 (Homo sapiens) (UniProt Q9H2X6). The note with it: dose 10.0 µM.
Assay [4] addresses T2, Casein kinase I isoform epsilon (Homo sapiens, UniProt P49674).
Target sequence in this assay (P49674 whole entry, canonical isoform): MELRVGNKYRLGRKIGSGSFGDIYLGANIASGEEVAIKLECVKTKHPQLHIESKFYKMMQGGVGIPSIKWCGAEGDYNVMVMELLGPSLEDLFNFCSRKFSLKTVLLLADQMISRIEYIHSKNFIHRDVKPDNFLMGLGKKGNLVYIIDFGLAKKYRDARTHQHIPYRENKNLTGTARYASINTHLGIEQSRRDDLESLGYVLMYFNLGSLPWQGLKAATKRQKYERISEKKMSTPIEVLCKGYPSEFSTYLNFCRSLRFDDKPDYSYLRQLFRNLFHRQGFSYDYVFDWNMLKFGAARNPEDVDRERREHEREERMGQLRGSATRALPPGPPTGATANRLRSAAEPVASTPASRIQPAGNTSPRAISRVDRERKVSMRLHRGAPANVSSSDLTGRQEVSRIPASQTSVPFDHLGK
Assay [5] concerns the target Cyclin-dependent kinase 5/CDK5 activator 1 (Homo sapiens, UniProt Q00535). Type of assay: cell-based, Sf9.
Assay [6] has as its target T3, Dual specificity protein kinase CLK1 (Homo sapiens, UniProt P49759). Type of assay: cell-based, Sf9.
Target sequence in this assay (P49759 whole entry): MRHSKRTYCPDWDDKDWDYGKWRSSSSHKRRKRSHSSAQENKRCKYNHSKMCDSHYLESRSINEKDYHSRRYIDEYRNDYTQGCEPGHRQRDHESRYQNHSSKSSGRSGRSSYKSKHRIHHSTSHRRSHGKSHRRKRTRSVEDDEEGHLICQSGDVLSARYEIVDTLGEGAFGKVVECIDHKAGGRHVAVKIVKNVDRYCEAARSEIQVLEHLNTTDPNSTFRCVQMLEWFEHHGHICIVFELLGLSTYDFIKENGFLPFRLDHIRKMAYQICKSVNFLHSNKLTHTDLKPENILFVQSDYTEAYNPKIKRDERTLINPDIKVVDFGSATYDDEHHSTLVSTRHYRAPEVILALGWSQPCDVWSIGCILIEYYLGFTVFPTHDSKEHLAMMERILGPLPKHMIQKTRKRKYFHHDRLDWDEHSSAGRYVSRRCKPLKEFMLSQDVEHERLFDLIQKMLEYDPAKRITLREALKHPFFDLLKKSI
Assay [7] concerns the target Dual specificity protein kinase CLK2 (Homo sapiens, UniProt P49760).
In assay [8] the target is T4, Dual specificity protein kinase CLK3 (Homo sapiens, UniProt P49761). It counts as cell-based, Sf9.
Target sequence in this assay (P49761 whole entry): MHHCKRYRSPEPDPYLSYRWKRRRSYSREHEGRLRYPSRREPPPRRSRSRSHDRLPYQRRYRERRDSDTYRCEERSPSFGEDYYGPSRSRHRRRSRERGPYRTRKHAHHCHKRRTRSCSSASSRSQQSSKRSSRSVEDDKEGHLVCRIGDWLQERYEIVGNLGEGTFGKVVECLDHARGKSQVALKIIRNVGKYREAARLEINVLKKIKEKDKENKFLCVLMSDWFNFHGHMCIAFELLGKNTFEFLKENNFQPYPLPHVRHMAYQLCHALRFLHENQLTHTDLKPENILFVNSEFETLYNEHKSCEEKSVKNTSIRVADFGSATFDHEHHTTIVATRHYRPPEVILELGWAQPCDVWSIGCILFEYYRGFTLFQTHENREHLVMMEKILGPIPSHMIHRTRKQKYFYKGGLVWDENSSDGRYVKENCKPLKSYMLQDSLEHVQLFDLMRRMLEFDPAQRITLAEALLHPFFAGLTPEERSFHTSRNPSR
Assay [9] addresses Dual specificity protein kinase CLK4 (Homo sapiens, UniProt Q9HAZ1).
For assay [10], the target named is T5, Dual specificity tyrosine-phosphorylation-regulated kinase 2 (Homo sapiens, UniProt Q92630).
T5 sequence (Q92630 whole entry): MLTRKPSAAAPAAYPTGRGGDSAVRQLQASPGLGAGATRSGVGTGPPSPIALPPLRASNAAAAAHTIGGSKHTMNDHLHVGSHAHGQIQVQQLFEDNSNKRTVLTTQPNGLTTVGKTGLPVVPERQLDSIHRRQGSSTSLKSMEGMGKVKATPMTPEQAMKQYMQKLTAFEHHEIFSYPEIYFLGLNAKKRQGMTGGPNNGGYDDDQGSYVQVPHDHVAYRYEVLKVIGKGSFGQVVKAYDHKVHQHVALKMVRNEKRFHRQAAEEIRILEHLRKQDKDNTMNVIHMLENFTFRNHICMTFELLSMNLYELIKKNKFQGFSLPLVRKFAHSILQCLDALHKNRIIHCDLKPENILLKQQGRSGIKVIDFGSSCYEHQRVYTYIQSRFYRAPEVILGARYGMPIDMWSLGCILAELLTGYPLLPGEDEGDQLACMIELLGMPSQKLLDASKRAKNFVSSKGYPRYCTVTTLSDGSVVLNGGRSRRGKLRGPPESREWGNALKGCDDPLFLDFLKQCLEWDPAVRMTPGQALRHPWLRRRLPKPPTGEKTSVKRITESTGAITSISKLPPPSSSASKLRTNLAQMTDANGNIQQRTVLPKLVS

Assay [11] addresses T6, Dual specificity tyrosine-phosphorylation-regulated kinase 3 (Homo sapiens, UniProt O43781).
T6 sequence (O43781 whole entry): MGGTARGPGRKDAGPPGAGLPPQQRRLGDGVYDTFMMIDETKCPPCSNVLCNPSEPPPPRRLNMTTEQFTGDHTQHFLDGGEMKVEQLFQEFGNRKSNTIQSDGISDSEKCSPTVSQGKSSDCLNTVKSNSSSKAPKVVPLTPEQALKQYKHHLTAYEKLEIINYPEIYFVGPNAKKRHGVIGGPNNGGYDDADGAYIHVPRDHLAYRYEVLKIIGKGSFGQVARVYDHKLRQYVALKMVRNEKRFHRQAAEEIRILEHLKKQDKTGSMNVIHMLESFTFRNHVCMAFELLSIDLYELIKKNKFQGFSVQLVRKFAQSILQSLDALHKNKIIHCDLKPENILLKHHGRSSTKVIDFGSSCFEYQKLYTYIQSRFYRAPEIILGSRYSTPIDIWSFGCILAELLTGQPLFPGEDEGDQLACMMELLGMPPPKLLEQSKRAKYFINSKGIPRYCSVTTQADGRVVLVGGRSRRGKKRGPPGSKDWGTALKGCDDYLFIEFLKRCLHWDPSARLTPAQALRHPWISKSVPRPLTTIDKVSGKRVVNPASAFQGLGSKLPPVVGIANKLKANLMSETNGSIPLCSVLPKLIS

For assay [12], the target named is T7, Dual specificity tyrosine-phosphorylation-regulated kinase 4 (Homo sapiens, UniProt Q9NR20).
T7 sequence (Q9NR20 whole entry): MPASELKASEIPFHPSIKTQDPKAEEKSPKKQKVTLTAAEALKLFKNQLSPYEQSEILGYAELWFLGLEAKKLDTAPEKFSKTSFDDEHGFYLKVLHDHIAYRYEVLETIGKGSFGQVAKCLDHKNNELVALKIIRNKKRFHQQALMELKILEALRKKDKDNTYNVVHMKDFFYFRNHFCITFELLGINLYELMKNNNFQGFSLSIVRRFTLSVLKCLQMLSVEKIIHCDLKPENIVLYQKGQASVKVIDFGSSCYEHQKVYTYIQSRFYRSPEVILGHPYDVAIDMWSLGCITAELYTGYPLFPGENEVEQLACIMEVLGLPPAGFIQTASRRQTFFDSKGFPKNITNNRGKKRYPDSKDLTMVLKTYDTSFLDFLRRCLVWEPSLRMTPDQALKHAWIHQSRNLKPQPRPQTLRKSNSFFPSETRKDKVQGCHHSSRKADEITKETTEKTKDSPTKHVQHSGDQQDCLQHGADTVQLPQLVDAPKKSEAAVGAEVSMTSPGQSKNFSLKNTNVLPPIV

For assay [13], the target named is Glycogen synthase kinase-3 beta (Homo sapiens, UniProt P49841). Type of assay: cell-based, Sf9.
Chain of Glycogen synthase kinase-3 beta (P49841 whole entry): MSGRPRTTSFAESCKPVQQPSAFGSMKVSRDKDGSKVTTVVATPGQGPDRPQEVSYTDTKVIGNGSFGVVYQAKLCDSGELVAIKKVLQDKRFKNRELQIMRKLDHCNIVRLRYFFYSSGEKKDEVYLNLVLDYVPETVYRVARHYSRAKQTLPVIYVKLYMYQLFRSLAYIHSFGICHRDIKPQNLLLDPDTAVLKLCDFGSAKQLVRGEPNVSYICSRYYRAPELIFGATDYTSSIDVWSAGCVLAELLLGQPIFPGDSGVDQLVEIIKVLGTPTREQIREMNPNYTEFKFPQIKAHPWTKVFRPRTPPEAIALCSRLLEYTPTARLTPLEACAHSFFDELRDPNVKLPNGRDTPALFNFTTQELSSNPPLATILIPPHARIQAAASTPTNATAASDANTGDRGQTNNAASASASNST
Assay [14] deals with Dual specificity tyrosine-phosphorylation-regulated kinase 1A (Homo sapiens, UniProt Q13627).
In assay [15] the target is T3, Dual specificity protein kinase CLK1. As to conditions: dose 10.0 µM.
Target sequence in this assay (P49759 whole entry, looked up): as the sequence (P49759 whole entry) above
Assay [16] addresses T4, Dual specificity protein kinase CLK3. The note with it: dose 10.0 µM.
Assay [17] deals with T2, Casein kinase I isoform epsilon. As to conditions: dose 10.0 µM.
Assay [18] deals with Casein kinase I isoform delta (Homo sapiens) (UniProt P48730). The note with it: dose 10.0 µM.

pIC50: −log10 of the molar value. Some results are limits rather than exact numbers.

Chain of Dual specificity protein kinase CLK4 (Q9HAZ1 whole entry): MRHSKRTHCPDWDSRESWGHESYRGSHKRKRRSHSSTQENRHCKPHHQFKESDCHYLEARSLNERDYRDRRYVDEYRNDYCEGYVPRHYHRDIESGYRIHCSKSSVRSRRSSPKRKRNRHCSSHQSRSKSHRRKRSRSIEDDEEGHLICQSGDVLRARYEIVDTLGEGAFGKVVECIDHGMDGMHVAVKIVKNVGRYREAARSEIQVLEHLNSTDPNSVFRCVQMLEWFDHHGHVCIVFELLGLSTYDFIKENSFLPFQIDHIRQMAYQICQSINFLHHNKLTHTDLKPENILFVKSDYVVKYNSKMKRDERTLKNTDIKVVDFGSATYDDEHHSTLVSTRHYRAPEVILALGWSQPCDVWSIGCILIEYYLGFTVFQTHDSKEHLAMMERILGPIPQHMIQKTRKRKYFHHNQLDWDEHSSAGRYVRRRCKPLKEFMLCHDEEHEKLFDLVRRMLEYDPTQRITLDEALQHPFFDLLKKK
Chain of Cyclin-dependent kinase 5/CDK5 activator 1 (Q00535 whole entry): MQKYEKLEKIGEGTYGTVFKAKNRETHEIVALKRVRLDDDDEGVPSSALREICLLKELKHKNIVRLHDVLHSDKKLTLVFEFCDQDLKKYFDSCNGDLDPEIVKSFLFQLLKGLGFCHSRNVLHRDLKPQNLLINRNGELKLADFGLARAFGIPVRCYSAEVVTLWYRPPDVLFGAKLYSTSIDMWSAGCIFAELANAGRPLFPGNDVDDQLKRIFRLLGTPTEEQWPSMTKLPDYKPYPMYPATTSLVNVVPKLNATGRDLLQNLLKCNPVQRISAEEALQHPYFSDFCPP
Chain of Cyclin-dependent kinase 5/CDK5 activator 1 (Q15078 whole entry, further chain): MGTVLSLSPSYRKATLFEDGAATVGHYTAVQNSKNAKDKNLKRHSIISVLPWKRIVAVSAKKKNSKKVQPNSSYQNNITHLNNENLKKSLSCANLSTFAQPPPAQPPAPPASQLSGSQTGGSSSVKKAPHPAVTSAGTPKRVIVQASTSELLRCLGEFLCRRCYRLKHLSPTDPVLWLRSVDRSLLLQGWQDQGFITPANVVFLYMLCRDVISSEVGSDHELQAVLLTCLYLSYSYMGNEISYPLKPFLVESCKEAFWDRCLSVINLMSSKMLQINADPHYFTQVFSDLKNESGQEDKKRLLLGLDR
Chain of Dual specificity protein kinase CLK2 (P49760 whole entry): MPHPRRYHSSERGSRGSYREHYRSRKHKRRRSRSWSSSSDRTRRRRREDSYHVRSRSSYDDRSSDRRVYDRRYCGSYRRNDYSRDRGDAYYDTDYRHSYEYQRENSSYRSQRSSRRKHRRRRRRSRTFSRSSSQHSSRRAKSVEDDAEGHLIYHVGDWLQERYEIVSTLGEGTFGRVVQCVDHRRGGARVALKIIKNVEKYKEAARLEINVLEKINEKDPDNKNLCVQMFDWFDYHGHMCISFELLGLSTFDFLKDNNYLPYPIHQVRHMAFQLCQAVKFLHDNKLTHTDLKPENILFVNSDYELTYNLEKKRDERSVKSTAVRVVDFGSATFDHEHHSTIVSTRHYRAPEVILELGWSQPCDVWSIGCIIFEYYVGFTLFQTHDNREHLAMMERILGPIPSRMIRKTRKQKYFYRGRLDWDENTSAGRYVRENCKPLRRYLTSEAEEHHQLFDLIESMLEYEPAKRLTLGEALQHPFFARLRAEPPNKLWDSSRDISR
Chain of Homeodomain-interacting protein kinase 2 (Homo sapiens) (Q9H2X6 whole entry, looked up, canonical isoform): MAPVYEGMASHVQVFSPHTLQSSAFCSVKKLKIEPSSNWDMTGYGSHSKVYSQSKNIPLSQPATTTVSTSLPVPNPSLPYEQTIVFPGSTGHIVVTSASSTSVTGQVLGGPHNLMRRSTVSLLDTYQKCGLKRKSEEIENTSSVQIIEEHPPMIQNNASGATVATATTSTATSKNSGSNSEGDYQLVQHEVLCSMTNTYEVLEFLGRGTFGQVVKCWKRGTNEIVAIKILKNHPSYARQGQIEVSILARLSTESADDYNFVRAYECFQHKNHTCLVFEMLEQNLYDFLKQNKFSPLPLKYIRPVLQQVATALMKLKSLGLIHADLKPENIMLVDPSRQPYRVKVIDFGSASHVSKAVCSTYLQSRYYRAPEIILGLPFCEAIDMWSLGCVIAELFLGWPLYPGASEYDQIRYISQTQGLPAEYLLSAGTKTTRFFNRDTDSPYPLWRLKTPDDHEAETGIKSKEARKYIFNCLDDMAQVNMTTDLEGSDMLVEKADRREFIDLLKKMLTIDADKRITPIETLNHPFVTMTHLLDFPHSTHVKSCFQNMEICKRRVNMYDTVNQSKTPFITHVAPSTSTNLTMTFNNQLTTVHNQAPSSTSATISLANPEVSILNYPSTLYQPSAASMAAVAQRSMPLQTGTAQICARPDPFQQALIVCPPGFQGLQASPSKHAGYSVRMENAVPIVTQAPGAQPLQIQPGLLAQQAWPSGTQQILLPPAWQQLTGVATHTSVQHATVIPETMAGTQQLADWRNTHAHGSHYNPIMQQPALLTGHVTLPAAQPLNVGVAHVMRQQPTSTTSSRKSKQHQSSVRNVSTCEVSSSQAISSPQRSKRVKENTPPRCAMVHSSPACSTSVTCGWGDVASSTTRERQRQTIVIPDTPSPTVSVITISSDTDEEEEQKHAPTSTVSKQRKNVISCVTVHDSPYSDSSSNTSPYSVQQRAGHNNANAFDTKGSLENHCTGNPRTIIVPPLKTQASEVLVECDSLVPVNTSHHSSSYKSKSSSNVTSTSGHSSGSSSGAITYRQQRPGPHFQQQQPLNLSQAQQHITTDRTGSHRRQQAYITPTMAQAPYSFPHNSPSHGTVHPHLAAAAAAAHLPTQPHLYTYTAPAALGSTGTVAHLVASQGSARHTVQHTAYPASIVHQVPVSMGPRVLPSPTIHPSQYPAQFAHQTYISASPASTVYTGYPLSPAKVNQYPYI

Turning to `CN[C@@H]1C[C@H]2O[C@@](C)([C@@H]1OC)n1c3ccccc3c3c4c(c5c6ccccc6n2c5c31)C(=O)NC4`, the thermal shift (ΔTm) was 14 °C in [1], 11.9 °C in assay [2] and 4.5 °C in [3].

Take `O=C1NC(NC23CC4CC(CC(C4)C2)C3)=N/C1=C\c1ccc2[nH]ccc2c1`: the pIC50 in assay [4] was below 5.00; in assay [5] it was below 5.00; in assay [6], 5.05; in [7], 5.44; in [8], below 5.00; in assay [9], 5.59. The pIC50 in [10] was below 5.00; in [11], below 5.00; in [12], below 5.00; in [13], below 5.00; in [14], 6.02.

For `O=C1NC(NC2CCCCCC2)=N/C1=C\c1ccc2[nH]ccc2c1`, the negative logarithm of the IC50 (pIC50) in assay [4], in assay [5], in assay [6], in assay [7], in assay [8] and in [9] was below 5.00 throughout. Moreover, the pIC50 in assay [10], in assay [11], in assay [12], in [13] and in [14] was below 5.00 throughout.

Regarding `Cn1cnc2cc(/C=C3\N=C(NC4CCCCC4)NC3=O)ccc21`, the pIC50 in [4], in assay [5], in assay [6], in assay [7], in assay [8] and in assay [9] was below 5.00 in each case. For the same compound, the pIC50 in assay [10], in [11], in assay [12], in assay [13] and in assay [14] was below 5.00 throughout.

Turning to `CN1CCN(C(=O)C(C)(C)c2ccc(C(=O)Nc3cn4cc(-c5ccncc5)ccc4n3)cc2)CC1`, the ΔTm is 15.7 °C in [15] and 15 °C in assay [16].

Take `COC(=O)[C@H](C)NC1=N/C(=C\c2ccc3ncsc3c2)C(=O)N1`: the pIC50 in [4] was below 5.00; in assay [5], below 5.00; in assay [6], 7.70; in assay [7] it was 7.07; in assay [8], 6.55; in [9], 8.15. The pIC50 was 6.38 in [10]; 5.91 in [11]; 5.64 in assay [12]; 5.29 in [13]; 8.15 in [14].

Turning to `Cn1cnc2cc(/C=C3\N=C(NC45CC6CC(CC(C6)C4)C5)NC3=O)ccc21`, the pIC50 in assay [4], in [5], in assay [6], in assay [7], in assay [8] and in assay [9] was below 5.00 throughout. Also, the pIC50 in assay [10], in assay [11], in assay [12], in [13] and in assay [14] was below 5.00 each time.

On to `O=C1NC(NC2CCCCC2)=N/C1=C\c1ccc2[nH]ccc2c1`, for which the pIC50 in assay [4], in assay [5], in assay [6], in assay [7], in [8] and in assay [9] was below 5.00 throughout. Also, the negative-log IC50 (pIC50) in [10], in assay [11], in [12], in assay [13] and in assay [14] was below 5.00 each time.

Turning to `Cn1ccc2cc(/C=C3\N=C(NC45CC6CC(CC(C6)C4)C5)NC3=O)ccc21`, the pIC50 in [4], in assay [5], in assay [6], in [7], in [8] and in assay [9] was below 5.00 in each case. The pIC50 in assay [10], in assay [11], in assay [12], in assay [13] and in assay [14] was below 5.00 each time.

In the case of `Cn1cnc2cc(/C=C3\N=C(NC4CCCCCC4)NC3=O)ccc21`, the pIC50 in [4], in [5], in assay [6], in assay [7], in [8] and in assay [9] was below 5.00 in each case. Also, the negative-log IC50 (pIC50) in [10], in assay [11], in [12], in assay [13] and in assay [14] was below 5.00 each time.

For `Nc1nccc(-c2c(-c3ccc(F)cc3)ncn2C2CCCCC2)n1`, the ΔTm stood at 8 °C in [17] and 9 °C in [18].

Turning to `Cn1ccc2cc(/C=C3\N=C(NC4CCCCC4)NC3=O)ccc21`, the pIC50 in assay [4], in [5], in [6], in assay [7], in assay [8] and in [9] was below 5.00 throughout. Moreover, the pIC50 in assay [10], in [11], in [12], in assay [13] and in assay [14] was below 5.00 in each case.

In the case of `O=C1NC(NC2CCCCCC2)=N/C1=C\c1ccc2c(c1)OCO2`, the pIC50 is below 5.00 in assay [4]; below 5.00 in [5]; 7.38 in [6]; 6.08 in assay [7]; 5.35 in assay [8]; 7.70 in assay [9]. The pIC50 was 5.29 in assay [10]; 5.50 in assay [11]; 5.91 in assay [12]; below 5.00 in assay [13]; 7.33 in [14].

For the origin of these results see ChEMBL document CHEMBL5360622, “Leucettinibs, a Class of DYRK/CLK Kinase Inhibitors Inspired by the Marine Sponge Natural Product Leucettamine B” (J Med Chem, 2023).
